In brackets after ≈: the same amount, converted by molar mass.
Legend:
[1] = test system: delayed-type hypersensitivity (DTH); experiment: Suppressive effect on delayed-type hypersensitivity (DTH) in mouse, intraperitoneal; assay type: in vivo, mouse (CDF1); details: intraperitoneal once a day, 0-4th day
Source text: Suppressive effect of delaminomycins on delayed-type hypersensitivity (DTH) in mouse
CDF1 mice were immunized by intravenously injecting sheep red blood cells (10^5 cells/mouse). On the 4th day after the immunization, sheep red blood cells (10^8 cells/mouse) were subcutaneously injected into the footpad of mice for the elicitation to cause a delayed-type hypersensitivity (DTH). Test compound was intraperitoneally administered to the mice once a day from the 0th day to 4th day after the immunization. On the 5th day after the elicitation the thickness of the mouse footpad was measured to estimate the suppressive effect of the test compound on the DTH response. The suppressive effect of the test compound was evaluated in terms of the inhibition rate (%) as calculated according to the following equation:
Inhibition rate (%)=100-(T/C×100)
wherein T denotes the thickness of the footpad when administering the test compound, but C denotes the thickness of the footpad when administering no test compound.

[2] = test system: Trichophyton mentagrophytes F-15 (833); experiment: MIC, agar plate dilution method; assay type: cell-based; details: 27° C., 42 hours, nutrient agar containing glucose
[3] = Absorption into the digestive tracts on oral administration; details: result in words
Mouse leukemia P388D1 = experiment: Inhibitory activity on proliferation of cancer cells; assay type: cell-based
Candida tropicalis F-1 = experiment: MIC, agar plate dilution method; assay type: cell-based; details: F1, 27° C., 42 hours, nutrient agar containing glucose
Piricularia oryzae = experiment: microbe, parasite or virus in culture; assay type: cell-based; details: 42 h
Xanthomonas citri = experiment: MIC, agar plate dilution method; assay type: cell-based; details: 27° C., 42 hours, nutrient agar containing glucose
Method: (§1) Delaminomycins A, B, C, A2, B2 and C2 according to this invention further have an antibacterial activity against a variety of bacteria. The minimum growth inhibitory concentrations (MIC) (μg/ml) of the novel antibiotics of this invention on various bacteria and fungi as measured by the agar plate dilution method are shown in Table 5a, Table 5b, Table 5c and Table 5d below.
(§2) Evaluated after culturing at 27° C. for 42 hours in nutrient agar
(§3) medium containing glucose.

Cochliobolus miyabeanus = experiment: MIC, agar plate dilution method; assay type: cell-based; details: Bipolaris oryzae; 27° C., 42 hours, nutrient agar containing glucose
Method: as §1, §2, §3

Candida Yu-1200 = experiment: MIC, agar plate dilution method; assay type: cell-based; details: YU1200, 27° C., 42 hours, nutrient agar containing glucose
Solubility = details: result in words
[4] = test system: nylon wool-passed cells of spleen cells (responder cell; T cells); experiment: Inhibitory activity to the mixed lymphocyte culture reaction; assay type: cell-based, rat (Fischer F344 responder; WKY stimulator)
Pellicularia sasakii = experiment: MIC, agar plate dilution method; assay type: cell-based; details: 27° C., 42 hours, nutrient agar containing glucose
Candida krusei F-5 = experiment: MIC, agar plate dilution method; assay type: cell-based; details: Pichia kudriavzevii, F5; 27° C., 42 hours, nutrient agar containing glucose
Mouse leukemia EL-4 = experiment: Inhibitory activity on proliferation of cancer cells; assay type: cell-based; details: EL4
Mouse melanoma B-16 = experiment: as above; assay type: cell-based; details: B16
[5] = test system: Trichophyton asteroides 429; experiment: MIC, agar plate dilution method; assay type: cell-based; details: 27° C., 42 hours, nutrient agar containing glucose
Human Lymphoma Jurkat = experiment: Inhibitory activity on proliferation of cancer cells; assay type: cell-based
Mouse leukemia L-1210 = experiment: as above; assay type: cell-based; details: L1210
Aspergillus niger F-16 = experiment: MIC, agar plate dilution method; assay type: cell-based; details: F16, 27° C., 42 hours, nutrient agar containing glucose
[6] = test system: Candida pseudotropicalis F-2; experiment: MIC, agar plate dilution method; assay type: cell-based; details: Kluyveromyces marxianus, F2; 27° C., 42 hours, nutrient agar containing glucose
[7] = test system: Saccharomyces cerevisiae F-7; experiment: MIC, agar plate dilution method; assay type: cell-based; details: F7, 27° C., 42 hours, nutrient agar containing glucose
[8] = test system: spleen cells (T cells activated by Concanavalin A); experiment: Inhibitory activity against blastogenesis and proliferation of spleen cells caused by mitogen (Con A); assay type: cell-based, mouse (CDF1)
Candida albicans 3147 = experiment: MIC, agar plate dilution method; assay type: cell-based; details: 27° C., 42 hours, nutrient agar containing glucose
[9] = test system: Cryptococcus neoformans F-10; experiment: MIC, agar plate dilution method; assay type: cell-based; details: F10, 27° C., 42 hours, nutrient agar containing glucose
[10] = Acute toxicity (LD50) in ICR mice; details: mouse, in vivo, ip, intraperitoneally
Gram-positive bacteria = experiment: Antibacterial activity to Gram-positive bacteria; assay type: cell-based; details: result in words
Source text: as §1

CCC(O)C(C)/C=C/C=C/C(O)CC1C=CC2CC(C)CC(C)C2C1(C)C(=O)C1C(=O)NC(O)C1=O (stereo not drawn) [Delaminomycin A]
Inhibition rate (DTH footpad thickness) ([1]; 15.6 μg/mouse): 0.1% | Inhibition rate (DTH footpad thickness) ([1]; 62.5 μg/mouse): 52.8% | Inhibition rate (DTH footpad thickness) ([1]; 250 μg/mouse): 85.3% | Inhibition rate (DTH footpad thickness) ([1]; 1000 μg/mouse): 99.2% | MIC [2]: > 100 µg/mL | absorption into the digestive tracts / oral absorption [3]: hardly absorbed into the digestive tracts | IC50 (Mouse leukemia P388D1): 14 µg/mL (≈ 27.9 µM) | MIC (Candida tropicalis F-1): > 100 µg/mL | MIC (Piricularia oryzae): > 100 µg/mL | MIC (Xanthomonas citri): > 100 µg/mL | MIC (Cochliobolus miyabeanus): > 100 µg/mL | MIC (Candida Yu-1200): > 100 µg/mL | Solubility (Solubility; various solvents): soluble in methanol but slightly soluble or insoluble in water, acetone, ethyl ether and n-hexane | Solubility in water (Solubility; water): barely soluble in water | inhibition at 0.1 µg/mL ([4]; Rattus norvegicus, T-cell, 0.10 μg/ml test compound, read-out: Inhibition rate): 17.6% | inhibition at 0.39 µg/mL ([4]; Rattus norvegicus, T-cell, 0.39 μg/ml test compound, read-out: Inhibition rate): 32.8% | inhibition at 1.56 µg/mL ([4]; Rattus norvegicus, T-cell, 1.56 μg/ml test compound, read-out: Inhibition rate): 17.5% | inhibition at 6.25 µg/mL ([4]; Rattus norvegicus, T-cell, 6.25 μg/ml test compound, read-out: Inhibition rate): 55.3% | inhibition at 25 µg/mL ([4]; Rattus norvegicus, T-cell, 25 μg/ml test compound, read-out: Inhibition rate): 95% | inhibition at 100 µg/mL ([4]; Rattus norvegicus, T-cell, 100 μg/ml test compound, read-out: Inhibition rate): 96.4% | IC50 ([4]; Rattus norvegicus, T-cell, 120 hours, 3H-thymidine incorporation, read-out: IC50 (inhibition of mixed lymphocyte culture reaction)): 8.6 µg/mL (≈ 17.1 µM) | activity to inhibit the proliferation of the T cells (responder cell) in mixed lymphocyte culture reaction ([4]; in vitro, result in words): have an activity to inhibit the reaction of proliferation of the T cells | MIC (Pellicularia sasakii): > 100 µg/mL | MIC (Candida krusei F-5): > 100 µg/mL | IC50 (Mouse leukemia EL-4): 17.9 µg/mL (≈ 35.7 µM) | IC50 (Mouse melanoma B-16): 21.1 µg/mL (≈ 42.1 µM) | MIC [5]: > 100 µg/mL | IC50 (Human Lymphoma Jurkat): 3.6 µg/mL (≈ 7.18 µM) | IC50 (Mouse leukemia L-1210): > 100 µg/mL | MIC (Aspergillus niger F-16): > 100 µg/mL | MIC [6]: > 100 µg/mL | MIC [7]: > 100 µg/mL | IC50 ([8]; Mus musculus, T-cell, read-out: IC50 (inhibition of blastogenesis and proliferation of spleen lymphocyte caused by Con A)): 17.5 µg/mL (≈ 34.9 µM) | inhibition at 1.56 µg/mL ([8]; Mus musculus, T-cell, 1.56 μg/ml test compound, read-out: Inhibition rate): 0% | inhibition at 6.25 µg/mL ([8]; Mus musculus, T-cell, 6.25 μg/ml test compound, read-out: Inhibition rate): 31% | inhibition at 25 µg/mL ([8]; Mus musculus, T-cell, 25 μg/ml test compound, read-out: Inhibition rate): 57% | inhibition at 100 µg/mL ([8]; Mus musculus, T-cell, 100 μg/ml test compound, read-out: Inhibition rate): 88% | activity inhibitory to the reaction of proliferation of mouse spleen cells activated with Concanavalin A ([8]; in vitro, result in words): exhibit an activity inhibitory to the reaction of proliferation of mouse spleen cells | MIC (Candida albicans 3147): > 100 µg/mL | MIC [9]: > 100 µg/mL | LD50 [10]: > 500 mg/kg | antibacterial activity to Gram-positive bacteria (Gram-positive bacteria): antibacterial activity to Gram-positive bacteria
